Test results taken from patent publication US20260297109A1, “COMPOUNDS AS SUMO ACTIVATING ENZYME INHIBITORS” (WIGEN BIOMEDICINE TECHNOLOGY (SHANGHAI) CO., LTD., priority 2022, published 2026).

The molecules below were run against T1, SAE (Homo sapiens, UniProt Q9UBT2) (assay: SUMO IF: in vitro inhibitory activity assay against SAE in HCT116 cells (SUMO-2/3 immunofluorescence)). Conditions: class symbols, 6 h at 37° C.
T1 construct: endogenous in cells; host or cells: HCT116
T1 sequence (Q9UBT2 1-640): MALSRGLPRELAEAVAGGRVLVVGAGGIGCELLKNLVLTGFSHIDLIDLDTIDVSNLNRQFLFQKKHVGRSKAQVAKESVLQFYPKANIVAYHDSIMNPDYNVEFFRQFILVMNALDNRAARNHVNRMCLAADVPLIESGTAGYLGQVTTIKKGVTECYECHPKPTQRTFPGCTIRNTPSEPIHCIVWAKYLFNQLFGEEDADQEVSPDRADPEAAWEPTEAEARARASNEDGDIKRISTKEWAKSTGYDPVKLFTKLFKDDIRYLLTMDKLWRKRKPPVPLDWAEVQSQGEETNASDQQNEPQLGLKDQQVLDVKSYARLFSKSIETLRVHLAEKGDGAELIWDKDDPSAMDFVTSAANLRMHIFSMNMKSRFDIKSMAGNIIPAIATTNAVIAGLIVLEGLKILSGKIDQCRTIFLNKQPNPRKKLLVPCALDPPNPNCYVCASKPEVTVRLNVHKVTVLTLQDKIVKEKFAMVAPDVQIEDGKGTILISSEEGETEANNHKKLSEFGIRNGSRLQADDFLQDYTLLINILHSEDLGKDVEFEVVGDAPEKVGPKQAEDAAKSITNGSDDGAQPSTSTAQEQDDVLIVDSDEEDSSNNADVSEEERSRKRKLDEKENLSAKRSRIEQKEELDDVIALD
T1 sequence (Q9UBE0 1-346): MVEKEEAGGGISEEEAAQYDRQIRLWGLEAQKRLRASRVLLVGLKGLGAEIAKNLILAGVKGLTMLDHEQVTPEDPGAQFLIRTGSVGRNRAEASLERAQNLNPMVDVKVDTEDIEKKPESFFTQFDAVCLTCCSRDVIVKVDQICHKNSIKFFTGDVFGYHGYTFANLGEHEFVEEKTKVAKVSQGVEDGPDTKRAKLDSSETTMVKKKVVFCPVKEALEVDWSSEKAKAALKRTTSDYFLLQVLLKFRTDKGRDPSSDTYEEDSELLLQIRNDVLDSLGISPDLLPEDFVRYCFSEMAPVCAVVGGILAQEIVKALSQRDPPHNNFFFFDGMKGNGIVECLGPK
Assay type: cell-based
How it was run: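 SUMO-2/3 immunofluorescence (18H8 primary 1:400, FITC secondary 1:300) was read after 6 h compound exposure of HCT116 cells at 37 °C. Inhibition rate and IC50 derive from signal relative to DMSO-treated wells.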
Work on `NS(=O)(=O)OC[C@H]1[C@H](F)[C@@H](Nc2ncncc2C(=O)c2cc3c(s2)CN(C2CC2)CC32NCCc3ccc(Cl)cc32)C[C@@H]1O` (stereo partly shown) [Compound 579] yielded an IC50 of no more than 50 nM. `NS(=O)(=O)OC[C@H]1[C@H](F)[C@@H](Nc2ncncc2C(=O)c2cc3c(s2)C=CC32OCCc3ccccc32)C[C@@H]1O` (stereo partly shown) [Compound 753] was tested, and the IC50 was 50 to 200 nM. In the case of `CCN1Cc2sc(C(=O)c3cncnc3N[C@H]3C[C@H](O)[C@@H](COS(N)(=O)=O)[C@@H]3F)cc2C2(C1)NCCc1ccc(Cl)cc12` (stereo partly shown) [Compound 645], the IC50 is reported as no more than 50 nM. Molecule `COc1ccc2c(c1)[C@@]1(CCCc3sc(C(=O)c4cncnc4N[C@H]4C[C@H](O)[C@@H](COS(N)(=O)=O)[C@@H]4F)cc31)NCC2` [Compound 644] has an IC50 greater than 200 nM. `NS(=O)(=O)OC[C@H]1[C@H](F)[C@@H](Nc2ncncc2C(=O)c2cc3c(s2)CCC32NCCc3cc(Cl)c(Cl)cc32)C[C@@H]1O` (stereo partly shown) [Compound 154] was tested, and the IC50 was 50 to 200 nM. In the case of `NS(=O)(=O)OC[C@H]1[C@H](F)[C@@H](Nc2ncncc2C(=O)c2cc3c(s2)CCC32NCCc3ccc(C4CC4)cc32)C[C@@H]1O` (stereo partly shown) [Compound 149], the IC50 is reported as 50 to 200 nM. `N#Cc1ccc2c(c1)[C@@]1(CCc3sc(C(=O)c4cncnc4N[C@H]4C[C@H](O)[C@@H](COS(N)(=O)=O)[C@@H]4F)cc31)OCC2` [Compound 752] gave an IC50 of no more than 50 nM. `NS(=O)(=O)OC[C@H]1[C@H](F)[C@@H](Nc2ncncc2C(=O)c2cc3c(s2)CC[C@]32OCCc3ccc(F)cc32)C[C@@H]1O` [Compound 749] gave an IC50 of 50 to 200 nM. `NS(=O)(=O)OC[C@H]1[C@H](F)[C@@H](Nc2ncncc2C(=O)c2cc3c(s2)OCCC32NCCc3ccc(Cl)cc32)C[C@@H]1O` (stereo partly shown) [Compound 122] was tested, and the IC50 was 50 to 200 nM. With `NS(=O)(=O)OC[C@H]1[C@H](F)[C@@H](Nc2ncncc2C(=O)c2cc3c(s2)CC=CC32NCCc3ccc(Cl)cc32)C[C@@H]1O` (stereo partly shown) [Compound 121] the IC50 was no more than 50 nM. For `NS(=O)(=O)OC[C@H]1[C@H](F)[C@@H](Nc2ncncc2C(=O)c2cc3c(s2)COC[C@@]32NCCc3ccc(Cl)c(F)c32)C[C@@H]1O` [Compound 568], the IC50 was greater than 200 nM. With `NS(=O)(=O)OC[C@H]1[C@H](F)[C@@H](Nc2ncncc2C(=O)c2cc3c(s2)C(F)=CC32NCCc3ccc(Cl)cc32)C[C@@H]1O` (stereo partly shown) [Compound 321] the IC50 was no more than 50 nM. `NS(=O)(=O)OC[C@H]1[C@H](F)[C@@H](Nc2ncncc2C(=O)c2cc3c(s2)CN(C2CC2)C[C@]32OCCc3ccc(Cl)cc32)C[C@@H]1O` [Compound 743] gave an IC50 of no more than 50 nM. Work on `CN1Cc2sc(C(=O)c3cncnc3N[C@H]3C[C@H](O)[C@@H](COS(N)(=O)=O)[C@@H]3F)cc2C2(C1)OCCc1ccc(F)cc12` (stereo partly shown) [Compound 720] yielded an IC50 of 50 to 200 nM. With `NS(=O)(=O)OC[C@H]1[C@H](F)[C@@H](Nc2ncncc2C(=O)c2cc3c(s2)CNC[C@@]32NCCc3ccc(Cl)cc32)C[C@@H]1O` [Compound 583] the IC50 was greater than 200 nM. `N#Cc1ccc2c(c1)[C@@]1(CCCc3sc(C(=O)c4cncnc4N[C@H]4C[C@H](O)[C@@H](COS(N)(=O)=O)[C@@H]4F)cc31)OCC2` [Compound 716] showed an IC50 of no more than 50 nM. With `NS(=O)(=O)OC[C@H]1[C@H](F)[C@@H](Nc2ncncc2C(=O)c2cc3c(s2)CSC[C@]32NCCc3ccc(F)cc32)C[C@@H]1O` [Compound 299] the IC50 was no more than 50 nM. `NS(=O)(=O)OC[C@H]1[C@H](F)[C@@H](Nc2ncncc2C(=O)c2cc3c(s2)CCCC32NCC(=O)c3ccc(Cl)cc32)C[C@@H]1O` (stereo partly shown) [Compound 125] showed an IC50 of 50 to 200 nM. `CC1=C[C@]2(NCCc3ccc(Cl)cc32)c2cc(C(=O)c3cncnc3N[C@H]3C[C@H](O)[C@@H](COS(N)(=O)=O)[C@@H]3F)sc21` [Compound 326] gave an IC50 of no more than 50 nM. `NS(=O)(=O)OC[C@H]1[C@H](F)[C@@H](Nc2ncncc2C(=O)c2cc3c(s2)COCC32NCCc3c(F)cc(Cl)cc32)C[C@@H]1O` (stereo partly shown) [Compound 573] was tested, and the IC50 was 50 to 200 nM. `Cc1sc(C(=O)c2cncnc2N[C@H]2C[C@H](O)[C@@H](COS(N)(=O)=O)[C@@H]2F)cc1C1NCCc2cc(F)c(Cl)c(F)c21` (stereo partly shown) [Compound 251] showed an IC50 of 50 to 200 nM. For `CC1(C)CNC2(C=Cc3sc(C(=O)c4cncnc4N[C@H]4C[C@H](O)[C@@H](COS(N)(=O)=O)[C@@H]4F)cc32)c2cc(Cl)ccc21` (stereo partly shown) [Compound 1059], the IC50 was 50 to 200 nM. Work on `NS(=O)(=O)CC[C@H]1[C@H](F)[C@@H](Nc2ncncc2C(=O)c2cc3c(s2)CC[C@@]32NCCc3ccc(Cl)cc32)C[C@@H]1O` [Compound 641] yielded an IC50 greater than 200 nM. `NS(=O)(=O)OC[C@H]1[C@H](F)[C@@H](Nc2ncncc2C(=O)c2cc3c(s2)CCCC32NCCc3cc(F)c(Cl)c(F)c32)C[C@@H]1O` (stereo partly shown) [Compound 116] gave an IC50 of 50 to 200 nM. Molecule `NS(=O)(=O)OC[C@H]1[C@H](F)[C@@H](Nc2ncncc2C(=O)c2cc3c(s2)OCC[C@]32NCCc3ccc(Cl)cc32)C[C@@H]1O` [Compound 682] has an IC50 of 50 to 200 nM. In the case of `Cc1cc2c(cc1Cl)C1(CCCc3sc(C(=O)c4cncnc4N[C@H]4C[C@H](O)[C@@H](COS(N)(=O)=O)[C@@H]4F)cc31)NCC2` (stereo partly shown) [Compound 113], the IC50 is reported as 50 to 200 nM. `NS(=O)(=O)OC[C@H]1[C@H](F)[C@@H](Nc2ncncc2C(=O)c2cc3c(s2)OCC32NCCc3ccc(F)cc32)C[C@@H]1O` (stereo partly shown) [Compound 142] showed an IC50 greater than 200 nM. Work on `NS(=O)(=O)OC[C@H]1[C@H](F)[C@@H](Nc2ncncc2C(=O)c2cc3c(s2)CCC32NCCc3cc(F)c(F)cc32)C[C@@H]1O` (stereo partly shown) [Compound 152] yielded an IC50 of 50 to 200 nM. `NS(=O)(=O)OC[C@H]1[C@H](F)[C@@H](Nc2ncncc2C(=O)c2cc3c(s2)CCC32NCCc3ccc(F)cc32)C[C@@H]1O` (stereo partly shown) [Compound 133] gave an IC50 of 50 to 200 nM. `NS(=O)(=O)OC[C@H]1[C@H](F)[C@@H](Nc2ncncc2C(=O)c2cc3c(s2)CCCC32NCCc3ccccc32)C[C@@H]1O` (stereo partly shown) [Compound 85] gave an IC50 of 50 to 200 nM. `NS(=O)(=O)OC[C@H]1[C@H](F)[C@@H](Nc2ncncc2C(=O)c2cc3c(s2)C=CC32OCCc3ccc(F)cc32)C[C@@H]1O` (stereo partly shown) [Compound 756] showed an IC50 of 50 to 200 nM. `Cc1sc(C(=O)c2cncnc2N[C@H]2C[C@H](O)[C@@H](COS(N)(=O)=O)[C@@H]2F)cc1[C@H]1NCCc2ccccc21` [Compound 231] gave an IC50 greater than 200 nM. `NS(=O)(=O)OC[C@H]1[C@H](F)[C@@H](Nc2ncncc2C(=O)c2cc3c(s2)CCC[C@]32NCCc3cc(Cl)c(Cl)cc32)C[C@@H]1O` [Compound 672] showed an IC50 of no more than 50 nM. `NS(=O)(=O)OC[C@H]1[C@H](F)[C@@H](Nc2ncncc2C(=O)c2cc3c(s2)CO[C@]32NCCc3ccc(Cl)cc32)C[C@@H]1O` [Compound 703] gave an IC50 of 50 to 200 nM. `NS(=O)(=O)OC[C@H]1[C@H](F)[C@@H](Nc2ncncc2C(=O)c2cc(C3NCCc4ccc(Cl)cc43)c(C3CC3)s2)C[C@@H]1O` (stereo partly shown) [Compound 984] gave an IC50 of 50 to 200 nM. For `Cc1sc(C(=O)c2cncnc2N[C@H]2C[C@H](O)[C@@H](COS(N)(=O)=O)[C@H]2F)cc1C1NCCc2cc(Cl)c(Cl)cc21` (stereo partly shown) [Compound 247], the IC50 was 50 to 200 nM. With `NS(=O)(=O)OC[C@H]1[C@H](F)[C@@H](Nc2ncncc2C(=O)c2cc3c(s2)C=CC32NCCc3ccc(F)cc32)C[C@@H]1O` (stereo partly shown) [Compound 163] the IC50 was 50 to 200 nM. With `Cc1ccc2c(c1)C(c1cc(C(=O)c3cncnc3N[C@H]3C[C@H](O)[C@@H](COS(N)(=O)=O)[C@@H]3F)sc1C)NCC2` (stereo partly shown) [Compound 241] the IC50 was 50 to 200 nM. For `NS(=O)(=O)OC[C@H]1[C@H](F)[C@@H](Nc2ncncc2C(=O)c2cc3c(s2)CCC32NC3(CC3)Cc3ccc(Cl)cc32)C[C@@H]1O` (stereo partly shown) [Compound 166], the IC50 was 50 to 200 nM. Work on `N#Cc1ccc2c(c1)[C@@]1(C=Cc3sc(C(=O)c4cncnc4N[C@H]4C[C@H](O)[C@@H](COS(N)(=O)=O)[C@@H]4F)cc31)OCC2` [Compound 764] yielded an IC50 of no more than 50 nM. Molecule `NS(=O)(=O)OC[C@H]1[C@H](F)[C@@H](Nc2ncncc2C(=O)c2cc3c(s2)CCC32OCCc3ccccc32)C[C@@H]1O` (stereo partly shown) [Compound 744] has an IC50 greater than 200 nM. In the case of `NS(=O)(=O)OC[C@H]1[C@H](F)[C@@H](Nc2ncncc2C(=O)c2cc3c(s2)C=C[C@@]32NCCc3ccc(F)cc32)C[C@@H]1O` [Compound 345], the IC50 is reported as greater than 200 nM. Molecule `NS(=O)(=O)OC[C@H]1[C@H](F)[C@@H](Nc2ncncc2C(=O)c2cc3c(s2)CSCC32NCCc3ccc(F)cc32)C[C@@H]1O` (stereo partly shown) [Compound 297] has an IC50 of no more than 50 nM.

Same assay, conditions: numeric values, 6 h at 37° C.
With `C=CCN1Cc2sc(C(=O)c3cncnc3N[C@H]3C[C@H](O)[C@@H](COS(N)(=O)=O)[C@@H]3F)cc2[C@]2(C1)NCCc1ccc(Cl)cc12` [Compound 656] the IC50 was 25.1 nM. `NS(=O)(=O)OC[C@H]1[C@H](F)[C@@H](Nc2ncncc2C(=O)c2cc3c(s2)COC[C@@]32NCCc3ccc(Cl)cc32)C[C@@H]1O` [Compound 104] gave an IC50 greater than 1000 nM. `NS(=O)(=O)OC[C@H]1[C@H](F)[C@@H](Nc2ncncc2C(=O)c2cc3c(s2)CC[C@]32NCCc3ccccc32)C[C@@H]1O` [Compound 129] showed an IC50 of 121 nM.
